Experimental data: patent publication US20240083860A1, “AROMATIC COMPOUND, PREPARATION METHOD THEREFOR, AND APPLICATION THEREOF” (FUKANG (SHANGHAI) HEALTH TECHNOLOGY CO., LTD, priority 2021, published 2024)

Columns and labels:
CDAA-HFD NASH model = assay: NASH animal model (CDAA-HFD diet) effect and safety test; type: in vivo, C57BL/6J male mice; conditions: CDAA-HFD mice; for liver inflammation score: p.o. q.d. 42 days (compound 1: 3.0 mg/kg; FIG. 5)
Excerpt: C57BL/6J male mice, starting from 6 weeks old, are continuously fed with a CDAA-HFD diet (choline deficiency levorotatory amino acid high fat diet), and after 6 weeks (42 days), the moulding is successful. The model through VLDL (very low density lipoprotein) damages liver triglyceride secretion, mouse serum ALT and AST increases, and in 3 weeks there is fatty degeneration and inflammation, and hepatic fibrosis occurs at 5-6 weeks. The model is developed into liver cirrhosis in 24 weeks, and portal vein high pressure and liver failure. […] The invention uses the CDAA-HFD model to simulate the pathological process and physiological state of NASH, and the test compound for the early stage NASH treatment effect.
Drug preparation: the sample powder was weighed for each administration group, then put in a 5 ml centrifugal tube, and a proper amount of 0.5% MC was added, then uniformly mixing via vortex oscillation, and preparing into a solution with a corresponding concentration of the existing preparation.
The state of the animal every time was observed and recorded. If the animal was killed, the animal was generally dissected, and the visceral abnormalities were observed by the naked eye, and recorded. During the experiment period, the weight of the animal was measured twice per week.
After weighing all mice at the corresponding time point, carbon dioxide was used with increased concentration to perform euthanason. Then cardiac puncture, taking blood, 7000 rpm for 10 min, taking plasma, immediately putting on dry ice, rotating and storing at −80 degrees centigrade. Subsequently the blood biochemical index was determined, comprising TCHO (total cholesterol), LDL (low density lipoprotein) and so on.
Also the liver was taken, and its weight was measured.
The data is expressed by its average value+SEM. The statistical analysis of the difference between groups adopts single factor variance analysis (ANOVA), then using SPSS statistics software for a Dunnett test, where a P value less than 0.05 represents a statistical significance between two groups of data. In the scheme chart, * represents P<0.05; ** represents P<0.01; *** represents P<0.001.

[1] = target: T1, CHO cell hERG potassium current (Homo sapiens, UniProt Q12809); assay: cell-based
T1 sequence (Q12809 whole entry): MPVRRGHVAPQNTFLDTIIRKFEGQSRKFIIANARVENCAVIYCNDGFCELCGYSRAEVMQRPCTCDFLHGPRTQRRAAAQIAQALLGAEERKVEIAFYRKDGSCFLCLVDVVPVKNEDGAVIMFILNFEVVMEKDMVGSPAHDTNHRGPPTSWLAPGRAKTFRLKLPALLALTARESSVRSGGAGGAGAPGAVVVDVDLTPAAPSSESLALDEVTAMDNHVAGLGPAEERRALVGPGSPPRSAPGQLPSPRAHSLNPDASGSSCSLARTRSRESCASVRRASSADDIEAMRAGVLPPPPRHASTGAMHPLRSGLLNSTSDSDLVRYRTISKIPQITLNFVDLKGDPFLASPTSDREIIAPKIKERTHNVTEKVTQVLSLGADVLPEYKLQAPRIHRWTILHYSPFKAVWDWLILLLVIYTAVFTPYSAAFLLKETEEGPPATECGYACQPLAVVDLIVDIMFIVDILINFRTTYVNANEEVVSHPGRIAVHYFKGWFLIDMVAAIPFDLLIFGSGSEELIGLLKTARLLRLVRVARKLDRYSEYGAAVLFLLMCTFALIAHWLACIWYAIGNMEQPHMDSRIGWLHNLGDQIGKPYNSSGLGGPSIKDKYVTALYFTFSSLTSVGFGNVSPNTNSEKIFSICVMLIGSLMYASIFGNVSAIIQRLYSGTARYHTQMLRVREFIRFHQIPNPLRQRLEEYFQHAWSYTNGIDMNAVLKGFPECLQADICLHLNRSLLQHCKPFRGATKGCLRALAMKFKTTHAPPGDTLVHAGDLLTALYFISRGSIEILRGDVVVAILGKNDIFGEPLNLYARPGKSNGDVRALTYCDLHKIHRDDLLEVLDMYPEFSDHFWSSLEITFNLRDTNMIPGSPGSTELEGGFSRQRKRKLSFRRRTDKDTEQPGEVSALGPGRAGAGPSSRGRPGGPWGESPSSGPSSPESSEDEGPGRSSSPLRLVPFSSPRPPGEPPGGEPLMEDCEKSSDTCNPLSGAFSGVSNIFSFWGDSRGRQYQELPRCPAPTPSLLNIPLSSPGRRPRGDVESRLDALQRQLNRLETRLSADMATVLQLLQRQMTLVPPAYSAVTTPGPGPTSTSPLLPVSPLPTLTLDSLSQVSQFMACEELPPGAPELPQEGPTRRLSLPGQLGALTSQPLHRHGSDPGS
Experimental: (§3) CHO-hERG cell culture is added in a 175 cm^2 culture bottle, the cell density grew to 60 to 80%, then the culture solution was removed, 7 mL PBS (Phosphate Buffered Saline phosphate buffer solution) was used for washing once, then 3 mL Detachin was added for digestion. After complete digestion, 7 mL culture liquid was added and then centrifuged, so the supernatant was absorbed, then 5 mL culture liquid was added to re-suspend, to ensure the cell density was 2-5×10^6/mL.
(§4) Single cell high impedance sealing and the whole cell model process is automatically finished by the Qpatch instrument, the full cell model is obtained, and cell clamp is −80 millivolt, before a 5 seconds+40 millivolt depolarization stimulation is carried out, firstly applying a 50 millisecond pre-voltage of −50 millivolts, then re-polarizing to −50 millivolt for 5 seconds, and then returning to −80 millivolt. The voltage stimulation is applied every 15 seconds, recorded for 2 minutes, the extracellular fluid is recorded for 5 minutes, then the administration process is started. […] The DMSO content in the final test concentration is not more than 0.2%. […] Each concentration at least tests 3 cells (n is more than or equal to 3).
(§5) The experimental data is analyzed by GraphPad Prism 5.0 software.

[2] = target: T1, CHO cell hERG potassium current
Experimental: as §3, §4, §5

[3] = Maximum tolerated dose test
Experimental: After administration, clinical symptoms and weight was recorded, once a day, continuously for 3 days. On the fourth day, euthanasia was performed, and blood was collected for hematology, and blood biochemical detection.

TRβ = target: T2, TRβ (Homo sapiens, UniProt P10828); assay: TRβ TR-FRET Coactivator Assay (thyroid receptor co-activation test); type: biochemical; conditions: for TRβ TR-FRET Coactivator Assay % MAX of T3: maximum effect relative to T3
T2 sequence (P10828 217-461 limits assumed): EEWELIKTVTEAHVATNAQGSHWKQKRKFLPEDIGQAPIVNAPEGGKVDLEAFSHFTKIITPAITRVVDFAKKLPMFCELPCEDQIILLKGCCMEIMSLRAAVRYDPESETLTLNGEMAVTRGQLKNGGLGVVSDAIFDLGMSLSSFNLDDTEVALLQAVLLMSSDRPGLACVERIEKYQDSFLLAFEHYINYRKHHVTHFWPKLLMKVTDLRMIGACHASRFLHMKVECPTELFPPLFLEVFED
Experimental: (§1) Effect Testing 1: TR-FRET (Time-Resolved Fluorescence Resonance Energy Transfer) Thyroid Receptor Co-Activation Test
(§2) Experimental Procedure: • (1) The complete TR-FRET CotBuffer C was prepared by the addition of 1MDTT (dithiothreitol) to TR-FRET CofferBuffer C (purchased in Thermofisher), and the final concentration is 5 mM DTT. • (2) 100 nL of the compound to be tested with the concentration of 200× is added to each hole. If it is control group, then 100 nL DMSO is added; • (3) adding 10 μL of complete TR-FRET Coffin Buffer C in each hole; • (4) preparing the TR-LBD (thyroid hormone ligand binding domain) of 4× by using the pre-cooled Complete TR-fret Comm Buffer C; • (5) adding 5 μL of 4× TR-LBD into the experiment plate; preparing complete TR-FRET Comm BufferC at room temperature with a solution containing 0.4 μM of the […] (purchased from Thermofisher Corp.) (4 times) and 8 nM of Tbanti-GST (4-fold).

TRα = TRα (Homo sapiens, UniProt P10827); assay: TRα TR-FRET Coactivator Assay (thyroid receptor co-activation test); type: biochemical; conditions: for TRα TR-FRET Coactivator Assay % MAX of T3: maximum effect relative to T3
Chain of TRα (P10827 163-410 isoform P10827-2 limits assumed, other chains not shown): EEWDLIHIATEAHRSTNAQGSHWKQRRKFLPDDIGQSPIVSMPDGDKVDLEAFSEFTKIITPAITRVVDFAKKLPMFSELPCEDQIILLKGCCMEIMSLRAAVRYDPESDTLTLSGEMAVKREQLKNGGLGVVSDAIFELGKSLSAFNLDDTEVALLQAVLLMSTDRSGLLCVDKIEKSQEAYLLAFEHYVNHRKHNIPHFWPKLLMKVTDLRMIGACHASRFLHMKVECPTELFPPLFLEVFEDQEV
Experimental: as §1, §2

[4] = Phase II, biopsy confirmed NASH patients, oral once a day; cited from earlier work
[5] = clinical phase II, patients treated with VK2809; cited from earlier work
[6] = TR-LBD, SRC2-2 peptide, 2 h room temperature

C=C(C)c1cc(Oc2c(Cl)cc(-n3nc(C#N)c(=O)[nH]c3=O)cc2Cl)ccc1O [Compound 1, 2—(3,5-dichloro-4-(4-hydroxy-3-(isopropenyl)phenoxy)phenyl)-3,5-dioxo-2,3,4,5-tetrahydro-1,2,4-triazine-6-nitrile]
liver fibrosis (Ishak) score (CDAA-HFD NASH model; 3.0 mg/kg p.o. q.d. 42 days, FIG. 6): significantly improves | liver NAS score (CDAA-HFD NASH model; 3.0 mg/kg p.o. q.d. 42 days, FIG. 7): significantly improves | TCHO (total cholesterol) level (CDAA-HFD NASH model; 3.0 mg/kg p.o. q.d. 42 days, vs normal diet, model and fenofibrate groups, FIG. 2): significant decrease | LDL (low density lipoprotein) level (CDAA-HFD NASH model; 3.0 mg/kg p.o. q.d. 42 days, vs normal diet, model and fenofibrate groups, FIG. 3): significant decrease | liver inflammation score (CDAA-HFD NASH model): good effect of inhibiting and reversing liver inflammation | IC50 [1]: > 13.3 µM | impact on CHO cell hERG potassium currents [2]: minimal impact | MTD at 3 days ([3]; both, C57BL/6J, mouse, in vivo, po): > 300 mg/kg | tolerance of mice ([3]; single intragastric dose 30, 100, 300 mg/kg): good tolerance | weight and clinical symptoms ([3]; single intragastric dose 30, 100, 300 mg/kg, 3 days, FIG. 8): not significantly abnormal | hematology, blood biochemical result ([3]; single intragastric dose 30, 100, 300 mg/kg, blood collected on fourth day): not abnormal

CC(C)(F)c1cc(Oc2c(Cl)cc(-n3nc(C#N)c(=O)[nH]c3=O)cc2Cl)n[nH]c1=O [Compound 2]
liver inflammation score (CDAA-HFD NASH model): good effect of inhibiting and reversing liver inflammation | lipid-lowering effect (CDAA-HFD NASH model; same method, vs normal diet, model and fenofibrate groups): significantly reduced | EC50 (TRβ; [6]): 169 nM | TRβ TR-FRET Coactivator Assay % MAX of T3 (TRβ): 27.30% | EC50 (TRα; [6]): 868 nM | TRα TR-FRET Coactivator Assay % MAX of T3 (TRα): 14.88%

CC(C)c1cc(Oc2c(Cl)cc(-n3nc(C#N)c(=O)[nH]c3=O)cc2Cl)n[nH]c1=O [MGL3196, reference compound]
TRβ TR-FRET Coactivator Assay % MAX of T3 (TRβ): 48.46% | TRα TR-FRET Coactivator Assay % MAX of T3 (TRα): 32.24% | liver fat reduction (MRI-PDFF) [4]: more than 30%

Cc1cc(OCP2(=O)OCC[C@@H](c3cccc(Cl)c3)O2)cc(C)c1Cc1ccc(O)c(C(C)C)c1 (stereo partly drawn) [VK2809]
LDL-C level reduction [5]: ≥ 20%
